In the SangsterLogP compilation:

Experiment: not given

| logP | SMILES |
| --- | --- |
| 4.45 | COc1cc(C(=O)Nc2ccc3nn(C4CCCCC4)nc3c2)cc(OC)c1OC |

Experiment: from Caliendo, G., Novellino, E., Santagada, V., Silipo, C., & Vittoria, A. (1991). Structure-activity relationships in a set of antimicrobial. In QSAR, Rational Approaches to the Design of Bioactive …

| SMILES | logP |
| --- | --- |
| O=C(Nc1ccc2nn(C3CCCCC3)nc2c1)c1ccc(Cl)c(Cl)c1 | 5.85 |
| COc1cc(C(=O)Nc2ccc3nn(C)nc3c2)cc(OC)c1OC | 2.38 |
| Cn1nc2ccc(NC(=O)c3ccc([N+](=O)[O-])cc3)cc2n1 | 2.53 |
| Cn1nc2ccc(NC(=O)CCl)cc2n1 | 1.22 |
| Cn1nc2ccc(NC(=O)c3ccccc3)cc2n1 | 2.44 |

Results, then the compound that gave them:

| logP | SMILES |
| --- | --- |
| 4.57 | O=C(Nc1ccc2nn(C3CCCCC3)nc2c1)c1ccc([N+](=O)[O-])cc1 |
| 3.13 | Cn1nc2ccc(NC(=O)c3ccc(Cl)cc3)cc2n1 |
| 4.45 | O=C(Nc1ccc2nn(C3CCCCC3)nc2c1)c1ccccc1 |
| 3.87 | O=C(Nc1ccc2nn(C3CCCCC3)nc2c1)C(Cl)Cl |
